Holding throughout (assay): Transporter inhibition
What all share (type): in vitro ADME

In data set [1] the target is T1, BCRP (Homo sapiens, UniProt Q9UNQ0).
T1 construct: expressed in transfected cells
T1 sequence (Q9UNQ0 1-655): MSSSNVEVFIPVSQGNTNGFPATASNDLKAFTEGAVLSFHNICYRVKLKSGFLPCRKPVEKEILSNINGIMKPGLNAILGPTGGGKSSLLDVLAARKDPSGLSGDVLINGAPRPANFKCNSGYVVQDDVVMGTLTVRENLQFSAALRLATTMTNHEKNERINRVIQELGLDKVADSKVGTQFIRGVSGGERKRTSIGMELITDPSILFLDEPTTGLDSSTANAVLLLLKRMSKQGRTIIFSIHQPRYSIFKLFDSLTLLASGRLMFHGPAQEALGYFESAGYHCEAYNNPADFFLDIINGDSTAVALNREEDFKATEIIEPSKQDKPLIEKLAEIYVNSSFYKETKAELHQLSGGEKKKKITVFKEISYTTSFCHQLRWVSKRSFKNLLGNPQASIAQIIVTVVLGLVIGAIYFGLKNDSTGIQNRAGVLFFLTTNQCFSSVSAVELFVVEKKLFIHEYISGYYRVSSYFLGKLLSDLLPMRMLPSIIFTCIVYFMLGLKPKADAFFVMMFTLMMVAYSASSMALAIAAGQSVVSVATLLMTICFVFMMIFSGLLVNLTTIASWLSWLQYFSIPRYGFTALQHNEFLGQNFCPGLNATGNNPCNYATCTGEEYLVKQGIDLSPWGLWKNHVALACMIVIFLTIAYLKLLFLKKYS
As for the experimental part: (§1) Human transporter protein interactions with opelconazole as a potential substrate and/or inhibitor were assessed for the following key carrier transporters: organic anion transporters, OAT1 and OAT3; organic cation transporters, OCT1 and OCT2; OATP1B1 and OATP1B3; multidrug and toxin extrusion, MATE-1 and MATE2-K; key ATP-binding cassette (ABC) transporters including P-gp, breast cancer resistance protein (BCRP) and bile salt export pump (BSEP). Two concentrations of opelconazole, 0.5 and 5 μM, were tested using MDCKII cells, human embryonic kidney 293 cells and BSEP-transfected sf9 membrane vesicles and then analysed by LC-tandem MS to determine transporter inhibition and whether opelconazole was a transporter substrate. The viability of experimental test systems was confirmed with controls and known probe substrates and probe inhibitors.

For data set [2], the target named is T2, BSEP (Homo sapiens, UniProt O95342).
T2 construct: expressed in transfected cells; host or cells: Sf9 membrane vesicles
T2 sequence (O95342 whole entry): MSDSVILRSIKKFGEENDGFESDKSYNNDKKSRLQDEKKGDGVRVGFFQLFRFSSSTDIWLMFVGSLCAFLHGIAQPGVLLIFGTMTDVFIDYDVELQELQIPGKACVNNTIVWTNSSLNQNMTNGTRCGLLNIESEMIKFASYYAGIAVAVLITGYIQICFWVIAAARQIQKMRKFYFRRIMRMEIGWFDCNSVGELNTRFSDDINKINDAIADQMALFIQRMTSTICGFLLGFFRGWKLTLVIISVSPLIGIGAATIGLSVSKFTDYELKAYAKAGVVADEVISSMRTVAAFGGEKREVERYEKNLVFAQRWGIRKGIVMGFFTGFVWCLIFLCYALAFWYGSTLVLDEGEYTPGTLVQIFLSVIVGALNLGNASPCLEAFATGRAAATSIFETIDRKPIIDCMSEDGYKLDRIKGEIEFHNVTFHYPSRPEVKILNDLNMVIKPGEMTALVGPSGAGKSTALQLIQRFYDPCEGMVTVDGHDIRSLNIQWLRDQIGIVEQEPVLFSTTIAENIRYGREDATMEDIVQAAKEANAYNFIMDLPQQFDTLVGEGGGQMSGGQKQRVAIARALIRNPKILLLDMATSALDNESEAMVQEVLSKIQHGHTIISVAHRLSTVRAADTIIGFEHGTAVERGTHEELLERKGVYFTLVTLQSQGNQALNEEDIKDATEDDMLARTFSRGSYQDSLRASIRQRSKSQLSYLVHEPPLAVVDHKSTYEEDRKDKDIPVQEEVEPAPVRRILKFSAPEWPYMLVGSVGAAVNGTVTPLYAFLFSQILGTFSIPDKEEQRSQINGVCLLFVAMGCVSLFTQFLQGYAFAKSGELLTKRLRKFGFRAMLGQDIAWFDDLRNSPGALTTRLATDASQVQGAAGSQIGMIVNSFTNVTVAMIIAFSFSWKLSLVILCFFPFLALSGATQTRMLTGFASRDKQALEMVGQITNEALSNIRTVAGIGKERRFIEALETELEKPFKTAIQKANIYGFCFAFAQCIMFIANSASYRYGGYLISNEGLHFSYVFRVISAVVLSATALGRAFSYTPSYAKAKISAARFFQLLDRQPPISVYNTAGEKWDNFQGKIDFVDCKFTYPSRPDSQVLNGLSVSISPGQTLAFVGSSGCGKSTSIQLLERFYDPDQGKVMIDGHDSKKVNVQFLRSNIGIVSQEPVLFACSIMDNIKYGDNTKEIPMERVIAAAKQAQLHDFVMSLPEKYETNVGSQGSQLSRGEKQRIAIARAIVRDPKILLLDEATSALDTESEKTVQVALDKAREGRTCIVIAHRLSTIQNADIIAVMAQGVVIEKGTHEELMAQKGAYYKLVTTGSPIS
Conditions: 0.5 and 5 μM tested. As for the experimental part: as §1

In data set [3] the target is T3, OATP1B3 (Homo sapiens, UniProt Q9NPD5).
T3 construct: expressed in transfected cells
T3 sequence (Q9NPD5 1-702): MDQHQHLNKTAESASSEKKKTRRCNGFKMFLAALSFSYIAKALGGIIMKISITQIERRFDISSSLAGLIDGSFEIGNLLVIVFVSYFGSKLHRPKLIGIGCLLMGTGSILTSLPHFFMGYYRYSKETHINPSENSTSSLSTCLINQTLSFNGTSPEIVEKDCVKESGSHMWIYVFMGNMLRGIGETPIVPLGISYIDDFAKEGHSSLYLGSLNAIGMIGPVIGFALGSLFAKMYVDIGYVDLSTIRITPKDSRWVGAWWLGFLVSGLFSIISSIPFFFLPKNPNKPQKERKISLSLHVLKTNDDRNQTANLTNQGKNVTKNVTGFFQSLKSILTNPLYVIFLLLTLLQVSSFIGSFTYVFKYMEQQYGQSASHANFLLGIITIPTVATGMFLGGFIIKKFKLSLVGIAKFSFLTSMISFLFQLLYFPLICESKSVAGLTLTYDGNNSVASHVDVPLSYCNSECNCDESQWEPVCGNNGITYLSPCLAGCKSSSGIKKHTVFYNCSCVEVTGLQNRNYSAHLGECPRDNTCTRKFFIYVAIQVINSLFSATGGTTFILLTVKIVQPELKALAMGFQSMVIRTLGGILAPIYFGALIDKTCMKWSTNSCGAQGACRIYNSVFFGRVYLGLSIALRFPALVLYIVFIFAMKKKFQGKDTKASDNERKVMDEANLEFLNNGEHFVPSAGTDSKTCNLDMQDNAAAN
Conditions: 0.5 and 5 μM tested. As for the experimental part: as §1

Data set [4] deals with T4, OCT1 (Homo sapiens, UniProt O15245).
T4 construct: expressed in transfected cells
T4 sequence (O15245 1-554): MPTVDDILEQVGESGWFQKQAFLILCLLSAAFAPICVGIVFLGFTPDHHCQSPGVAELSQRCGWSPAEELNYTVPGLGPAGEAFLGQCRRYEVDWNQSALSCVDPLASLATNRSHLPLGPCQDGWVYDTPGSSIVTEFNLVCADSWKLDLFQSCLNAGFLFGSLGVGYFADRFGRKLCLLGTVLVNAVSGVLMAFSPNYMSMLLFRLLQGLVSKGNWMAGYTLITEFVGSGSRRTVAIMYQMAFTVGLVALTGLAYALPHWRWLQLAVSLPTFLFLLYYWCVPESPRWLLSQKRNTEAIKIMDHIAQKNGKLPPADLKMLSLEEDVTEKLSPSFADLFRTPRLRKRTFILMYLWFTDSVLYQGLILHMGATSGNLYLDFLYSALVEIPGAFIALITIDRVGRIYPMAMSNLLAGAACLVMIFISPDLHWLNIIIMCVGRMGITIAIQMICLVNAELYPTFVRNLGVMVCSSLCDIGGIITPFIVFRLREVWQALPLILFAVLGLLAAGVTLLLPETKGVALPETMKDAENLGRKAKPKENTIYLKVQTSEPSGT
Conditions: 0.5 and 5 μM tested. As to the method: as §1

Data set [5] deals with T5, P-gp (Homo sapiens, UniProt P08183).
T5 construct: expressed in transfected cells
T5 sequence (P08183 whole entry): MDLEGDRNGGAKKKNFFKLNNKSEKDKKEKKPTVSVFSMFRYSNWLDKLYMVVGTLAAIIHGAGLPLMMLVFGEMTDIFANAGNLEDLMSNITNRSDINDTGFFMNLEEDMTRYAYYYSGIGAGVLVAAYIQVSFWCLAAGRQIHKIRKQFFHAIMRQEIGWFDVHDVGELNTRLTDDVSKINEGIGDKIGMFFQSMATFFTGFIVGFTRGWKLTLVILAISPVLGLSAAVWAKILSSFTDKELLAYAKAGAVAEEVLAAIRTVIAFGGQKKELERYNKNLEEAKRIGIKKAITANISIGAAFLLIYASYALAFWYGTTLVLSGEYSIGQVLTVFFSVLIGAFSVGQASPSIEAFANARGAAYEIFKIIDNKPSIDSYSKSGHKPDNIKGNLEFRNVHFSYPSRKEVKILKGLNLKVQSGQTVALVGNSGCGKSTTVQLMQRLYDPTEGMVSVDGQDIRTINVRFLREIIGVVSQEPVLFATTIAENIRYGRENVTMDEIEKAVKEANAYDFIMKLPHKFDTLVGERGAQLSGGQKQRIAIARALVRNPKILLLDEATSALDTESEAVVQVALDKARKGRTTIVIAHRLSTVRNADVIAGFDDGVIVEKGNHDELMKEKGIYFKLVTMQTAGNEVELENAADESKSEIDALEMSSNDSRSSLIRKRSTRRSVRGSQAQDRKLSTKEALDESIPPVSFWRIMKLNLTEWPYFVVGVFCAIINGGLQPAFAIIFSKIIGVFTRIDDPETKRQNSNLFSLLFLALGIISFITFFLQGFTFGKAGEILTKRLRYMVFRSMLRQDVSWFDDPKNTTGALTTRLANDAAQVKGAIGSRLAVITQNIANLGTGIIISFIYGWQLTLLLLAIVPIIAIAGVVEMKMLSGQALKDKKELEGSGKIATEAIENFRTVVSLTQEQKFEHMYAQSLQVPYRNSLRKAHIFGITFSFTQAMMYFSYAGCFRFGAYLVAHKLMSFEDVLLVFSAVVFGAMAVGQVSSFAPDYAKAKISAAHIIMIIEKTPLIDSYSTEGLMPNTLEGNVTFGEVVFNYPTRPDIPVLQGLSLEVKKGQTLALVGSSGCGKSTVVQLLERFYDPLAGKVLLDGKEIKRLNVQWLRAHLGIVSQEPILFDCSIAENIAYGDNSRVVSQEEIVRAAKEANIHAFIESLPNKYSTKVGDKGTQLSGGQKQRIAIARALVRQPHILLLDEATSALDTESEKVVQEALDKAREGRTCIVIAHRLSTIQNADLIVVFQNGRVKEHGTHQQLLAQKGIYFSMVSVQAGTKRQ
As to the method: as §1

Each structure is given as a SMILES string.

Turning to `Cc1cc(N2CCN(c3ccc(C(=O)Nc4ccc(F)cc4)cc3)CC2)ccc1OC[C@@H]1CO[C@@](Cn2cncn2)(c2ccc(F)cc2F)C1` [opelconazole], the “inhibition of BCRP relative to solvent control” value came out at 52% in data set [1] (0.5 μM opelconazole) and 56% in data set [1] (5 μM opelconazole). Also, in data set [2], the “inhibitory interaction with BSEP” value is listed as “negligible inhibitory interactions”. For the same compound, in data set [3], the “inhibitory interaction with OATP1B3” value is “negligible inhibitory interactions”. For the same compound, in data set [4], the “inhibitory interaction with OCT1” value is “negligible inhibitory interactions”. In data set [5] (0.5 μM opelconazole), the “inhibitory interaction with P-gp” value is reported as “negligible inhibitory interactions”. For the same compound, the “inhibition of P-gp relative to solvent control” value in data set [5] (5 μM opelconazole) came out at 52%.

Source of the values: paper PMC12670164, “In vitro and clinical data demonstrate negligible risk of drug–drug interactions with opelconazole, a novel inhaled antifungal agent” (Journal of Antimicrobial Chemotherapy, 2025).
